Results on 4 compounds are retold here after paper PMC9822769, “The Strange Case: The Unsymmetric Cisplatin-Based Pt(IV) Prodrug [Pt(CH3COO)Cl2(NH3)2(OH)] Exhibits Higher Cytotoxic Activity with respect to Its Symmetric Congeners due to Carrier-Mediated Cellular Uptake” (Bioinorganic Chemistry and Applications, 2022).

For one data set, the system named is A2780. The data set is described as follows: Resazurin reduction cell viability assay, A2780. As to conditions: 72 h of treatment; mean ± sd. The format is cell-based, human. The procedure:
The compounds under investigation were tested on a panel of commercial human cancer cell lines: ovarian endometrioid adenocarcinoma A2780 (ICLC HTL98008), its cisplatin-resistant variant A2780cisR (ECACC 93112517), colon carcinoma HCT 116 (ECACC 91091005), breast invasive ductal carcinoma MCF7 (ECACC 86012803), embryonal carcinoma NTERA-2 clone D1 (also known as NT2/D1, ICLC HTL97025), and lung adenocarcinoma A549 (ICLC HTL03001). Furthermore, a cell line derived from the pleural effusion of a patient with untreated malignant pleural mesothelioma (MPM) was added to the panel, namely, MM98 (sarcomatoid phenotype). Commercial cells were purchased from the European Collection of Authenticated Cell Cultures (ECACC, UK) or the Interlab Cell Line Collection (ICLC, Genoa, Italy), while the MM98 cell line was obtained from the Pathology Unit of the National Hospital of Alessandria (Italy).
The following media were used to grow the cells: RPMI 1640 (for A2780, A2780cisR, NT2/D1, and A549 cells), DMEM (for MCF7 cells), DMEM supplemented with nonessential amino acids (for MM98 cells), and McCoy's 5A (for HCT 116 cells). All media contained L-glutamine (2 mM) and were added with penicillin (100 IU·mL^−1), streptomycin (100 mg·L^−1), and 10% heat inactivated FBS. To maintain resistance in A2780cisR cells, cisplatin (1 μM) was added to the medium every two passages.
Continuous treatments (CT) were carried out at 37°C in a humidified chamber with 5% CO2. Cisplatin was dissolved in a 0.9% w/v NaCl aqueous solution and brought to pH = 3 with HCl (final stock concentration 1 mM). The Pt(IV) Complexes 1–3 were dissolved in milliQ water (final stock concentration 5 mM) and stored at −20°C. The stock concentration was confirmed with inductively coupled plasma-mass spectrometry (ICP-MS) measurements. The mother solutions were diluted in a complete medium to the required concentration.
To assess the growth inhibition of the compounds under investigation, a cell viability test (i.e., the resazurin reduction assay) was used. […] At the end of the treatment (72 h), viability was evaluated with 100 μg·mL^−1 resazurin (Acros Chemicals, France) in a fresh medium for 1 h at 37°C, and the amount of the reduced product, resorufin, was measured by fluorescence (excitation λ = 535 nm, emission λ = 595 nm) with a Tecan Infinite F200Pro plate reader (Tecan, Austria). In each experiment, cells were challenged with drug candidates at different concentrations, and the final data were calculated from at least three replicates of the same experiment performed in triplicate. The fluorescence of 8 wells containing a medium without cells was used as a blank. Fluorescence data were normalized to 100% cell viability for nontreated cells. […]

The next data set has as its system A2780 cells. The data set is described as follows: Cellular Pt accumulation (accumulation ratio, ICP-MS) in A2780 cells. The class given is cell-based, human. As to conditions: A2780, 4 h CT, 10 μM. The method, then:
A2780 and A2780cisR cells were seeded in 10 mm Petri dishes and challenged with complexes under investigation (10 μM) in a complete medium for 4 h. At the end of the exposure, cells were washed three times with PBS, detached from Petri dishes using 0.05% trypsin 1x + 2% EDTA (HyClone, Thermo Fisher), and harvested in a completely fresh medium. An automatic cell counting device (Countess®, Life Technologies) was used to measure the number and mean diameter of each cell necessary to calculate the mean cellular (spherical) volume.
For the analysis of Pt accumulation, cells were transferred to a borosilicate glass tube and centrifuged at 1100 rpm for 5 min at room temperature. The supernatant was carefully removed by aspiration, while approximately, 200 μL of the supernatant was left to limit cell loss. Cellular pellets were stored at −80°C until mineralization.
The determination of the platinum content was performed by ICP-MS (Thermo Optek X Series 2). Mineralization was carried out by adding 70% w/w HNO3 to each sample (after defrosting), followed by incubation for 1 h at 60°C in an ultrasonic bath. Before the ICP-MS measurement, HNO3 was diluted to a final concentration of 1%. The instrument settings were optimized to produce the highest platinum sensitivity, and the most abundant isotopes of Pt and In (used as an internal standard) were quantified at m/z 195 and 115, respectively.
The quantity of Pt found in cells and normalized on cell number (cellular Pt accumulation) was expressed as ng of Pt per 10^6 cells. The mean cellular volume, calculated from the actual mean cell diameter measured for each sample (about 12 μm), was used to obtain the volume of 10^6 cells and, finally, the intracellular Pt concentration. At treatment time zero, 100 μL of the medium was taken from each sample to verify the extracellular Pt concentration. The ratio between intracellular and the actual extracellular concentrations is defined as the accumulation ratio, AR [70]. The Pt content in the control experiment, which characterizes any possible Pt contamination during the overall process, was statistically insignificant with respect to the cellular Pt accumulated during treatment, even in the case of A2780cisR.
Experiments with the inhibitors were carried out at 37°C as follows: (i) NaN3 + 2-deoxy-D-glucose (2DG): preincubation for 30 min in PBS with 25 mM NaN3 and 25 mM 2DG, followed by a 10 μM CT with the Pt compounds in Earle's Balanced Salt Solution (EBSS) for 1 h; (ii) cimetidine (CMT): coincubation with 1.5 mM CMT and 10 μM Pt compounds in EBSS for 1 h; (iii) 1-methyl-4-phenylpyridin-1-ium (MPP^+): coincubation with 2.0 mM MPP^+ and 10 μM Pt compounds in EBSS for 1 h; (iv) cytochalasin D (CTD): preincubation for 30 min in EBSS with 10 μM CTD, followed by a 10 μM CT with the Pt compounds in EBSS for 1 h; (v) O-benzylserine (BS): coincubation with 1.0 mM BS and 10 μM Pt compounds in EBSS for 4 h; (vi) ouabain (OUA): preincubation for 1 h in EBSS with 1 mM OUA, followed by a 10 μM CT with the Pt compounds in EBSS for 4 h; (vii) tetraethylammonium chloride (TEA): preincubation for 1 h with 2.0 mM TEA followed by 10 μM Pt compounds in EBSS for 4 h. In the experiments at low temperature, A2780 cells were preincubated for 2 h at 4°C, followed by CT with each Pt compound (10 μM) for 4 h. In all cases, at the end of the CT, the cells were manipulated as described in the previous paragraphs.

On the set-up of data set [1]: method as in PMID 32296997. As to conditions: 37°C, ten-fold excess of ascorbic acid; cited from earlier work.
On the set-up of data set [2]: method as in PMID 32296997. The note with it: vs. Ag/AgCl, 3M KCl, glassy carbon electrode, scan rate 0.2 V·s^−1; cited from earlier work.

Each structure is given as a SMILES string.

What is called IC50 is the concentration that inhibits the measured activity by half. Low readings indicate higher potency, high ones lower potency. `N.N.[Cl][Pt][Cl]` [Cisplatin, (SP-4-2)-diamminedichloridoplatinum(II)]: half-maximal inhibition in the data set on A2780 (IC50) was put at 0.48 ± 0.12 µM. Besides, in the data set on A2780 cells, the “ratio between AR 37°C and AR 4°C” value is recorded as “increases hugely”.
Consider `N.N.[OH][Pt]([OH])([Cl])[Cl]` [Complex 1, (OC-6-33)-diamminedichloridodihydroxidoplatinum(IV)], for which the “t ½” value in data set [1] was 8.6 min. In the data set on A2780, this compound showed an IC50 of 3.71 ± 1.93 µM. For the same compound, the “ratio between AR 37°C and AR 4°C” value with A2780 cells is listed as 3.2. The “E p (reduction peak potential)” value in data set [2] was −0.815 V.
In the case of `CC(=O)[O][Pt]([OH])([Cl])[Cl].N.N` [Complex 2, (OC-6-44)-acetatodiamminedichloridohydroxidoplatinum(IV)], the “t ½” value in data set [1] was 20.5 min. In the data set with A2780, this compound showed an IC50 of 0.16 ± 0.05 µM. For the same compound, the “ratio between AR 37°C and AR 4°C” value with A2780 cells is reported as “increases hugely”. Moreover, the “accumulation ratio (AR)” value in the data set on A2780 cells (37°C) is “higher AR at 4 h than 1 and 3, even higher than that of cisplatin”. The “E p (reduction peak potential)” value in data set [2] is −0.618 V.
On to `CC(=O)[O][Pt]([NH2])([NH2])([Cl])([Cl])[O]C(C)=O` [Complex 3, (OC-6-33)-diamminedichloridodiacetatoplatinum(IV)], for which the “t ½” value in data set [1] is reported as 528 min. In the data set with A2780, this compound gave a half-maximal inhibitory concentration (IC50) of 12.1 ± 5.2 µM. In addition, the “ratio between AR 37°C and AR 4°C” value in the data set with A2780 cells was determined as 3.6. Besides, in data set [2], the “E p (reduction peak potential)” value is reported as −0.486 V.
